The results in this text go back to article PMC5711939, “The rumen microbiome: an underexplored resource for novel antimicrobial discovery” (NPJ Biofilms and Microbiomes, 2017).

One series concerns Ent. faecalis JH2-2. Kind of series: microbe, parasite or virus in culture. As for the experimental part:
(§1) Peptides dissolved in sterile distilled water and comparator antibiotics dissolved in the appropriate solvents[38] were added to sterile U-bottom polypropylene 96-well microplates at desired concentrations.

Series [1] has as its system List. monocytogenes NCTC 11994. Kind of series: microbe, parasite or virus in culture. As to conditions: NCTC 11994. The protocol: as §1
The test system of another series is S. aureus. Kind of series: microbe, parasite or virus in culture. Particulars: for MIC: strain RN4220, Sensitive, cation adjusted MHB, 18–24 h. As for the experimental part:
as §1

Another series has as its system Sal. typhimurium SL1344. Nature of the series: microbe, parasite or virus in culture. As for the experimental part: as §1
In a further series the test system is C. coli. The protocol:
as §1

The test system of the next series is E. coli K12. Kind of series: MIC, broth microdilution. The class given is cell-based, Escherichia coli. Particulars: strain K12; cation adjusted MHB, 18–24 h. As for the experimental part: as §1
The next series has as its system MRSA ATCC 33591. Kind of series: Anti-biofilm activity, 96-well crystal violet model. Format: cell-based, Staphylococcus aureus. As to conditions: 0.25× MIC (data not shown). The protocol: The effectiveness of Lynronne-1, Lynronne-2, and Lynronne-3 to prevent (a) biofilm attachment and (b) disrupt established biofilms was measured using a 96-well biofilm model.[50] […] The biofilms were washed in PBS to remove planktonic cells, fixed with methanol, stained with 0.5% (w/v) crystal violet and re-solubilized with 33% (v/v) acetic acid. The optical density of biofilms was measured at 570 nm.

For another series, the system named is HUVEC and HepG2 cells. Particulars: for total growth inhibition (TGI): HUVEC and HepG2 cells (cell line not given). The protocol: Cytotoxic activity of the identified peptides was determined using HUVEC and HEPG2 cells as described previously.[41],[42] […] Significant responses were defined when observed cell growth was ≤50% and tube length was ≤70% using the proliferation and tube formation assays respectively. Permeabilization of eukaryotic membrane by Lynronne-1, Lynronne-2 and Lynronne-3 was also investigated using HepG2 cells as described previously.[43]

The nature of series [2]: Peptide-lipid interaction with pure lipids, lipid monolayer. Format: binding. As to conditions: peptide 1 µg/ml; for Interaction with pure lipids: POPG, cardiolipin, LTA, POPE above POPC, initial surface pressure 30 ± 0.5 mN/m. As for the experimental part:
Membrane permeabilsation was evaluated using propidium iodide assay as previously explained,[43] with CTAB as positive control. Peptide–lipid interaction was measured using reconstituted lipid monolayer.[44] Total lipid extract from overnight liquid cultures of MRSA USA300 was obtained by Folch extraction, resuspended in chloroform and stored at −20 °C under nitrogen conditions. Pure bacterial and eukaryotic lipids, POPG, cardiolipin, LTA, POPE and POPC (Avanti Polar Lipid USA) were reconstituted in chloroform at 1 mg/ml and stored at −20 °C under nitrogen. Using a 50 µl Hamilton’s syringe, total MRSA lipid extract or pure lipids were spread at the surface of PBS creating a lipid monolayer at the air-water interface until an initial surface pressure of 30 ± 0.5 mN/m was reached. This corresponds to a lipid packing density theoretically equivalent to that of the outer leaflet of the cell membrane.[45] After 5–10 min of incubation allowing evaporation of the solvent and stabilization of the initial surface pressure, peptides were injected into the PBS (pH 7.4, volume 800 µl) sub-phase using a 10 µl Hamilton syringe. The variation of the surface pressure caused by peptide injection was then continuously monitored using a fully automated microtensiometer (µTROUGH SX, Kibron Inc., Helsinki, Finland) until reaching equilibrium (maximal surface pressure increase usually obtained after 15–25 min). Critical pressure of insertion of each peptide in the different lipids was also determined by changing the initial pressure of lipid monolayer (from 10 and 30 mN/m) and measuring the variation of pressure caused by the injection of peptide (at 1 µg/ml final concentration). All experiments were carried out in a controlled atmosphere at 20 °C ± 1 °C and data were analyzed using the Filmware 2.5 program (Kibron Inc., Helsinki, Finland). Variation of surface pressure was plotted as a function of initial surface pressure and critical pressure of insertion was calculated as the theoretical value of initial pressure of lipid monolayer not permissive to peptide insertion, i.e., a variation of pressure equal to 0 mN/m. The accuracy of the system under our experimental conditions was determined to be ± […] for surface pressure measurements.

The subject of a further series is MRSA USA300 cells. Kind of series: Transmission electron microscopy of treated cells. Particulars: 3× MIC for 1 h. Format: cell-based, Staphylococcus aureus. From the text: Effects of AMPs on bacterial cell morphology was investigated using transmission electron microscopy as described by Huws et al.[49] […] Cells were post-fixed with 1% osmium tetroxide (w/v), stained with 2% (w/v) uranyl acetate and Reynold’s lead citrate and observed using a JEOL JEM1010 transmission electron microscope (JEOL Ltd, Tokyo, Japan) at 80 kV.

Series [3] deals with S. aureus MRSA ATCC 33591. Kind of series: Neutropenic mouse MRSA thigh infection model. Format: in vivo, Staphylococcus aureus. Particulars: neutropenic male ICR mice; 10 mg/kg IV once or twice (2 h or 2 and 8 h post infection). As for the experimental part: In the thigh infection model, using neutropenic mice,[25] groups of five male ICR mice weighing 22 ± 2 g were inoculated intramuscularly (IM) with S. aureus MRSA, ATCC 33591 (1.57 × 10^5 CFU/mouse (0.1 ml/thigh)) in the right thigh. Lynronne-1, Lynronne-2 and Lynronne-3 at 10 mg/kg were intravenously (IV) administered once 2 h post infection or twice 2 and 8 h post-infection. The reference substance, vancomycin, was also intravenously injected 2 and 8 h post-infection at 10 and 30 mg/kg. Test animals were sacrificed 26 h after inoculation and the infected thighs were excised and the bacterial burden (CFU/gram) was determined.

In another series the test system is A. baumanii. Kind of series: microbe, parasite or virus in culture. The protocol: as §1
Another series has as its system K. pneumoniae. Kind of series: microbe, parasite or virus in culture. As to conditions: cation adjusted MHB, 18–24 h. As for the experimental part: as §1
A short description of series [4]: Peptide-lipid interaction, lipid monolayer (Langmuir balance). The class given is binding, Staphylococcus aureus. Particulars: initial surface pressure 30 ± 0.5 mN/m; compared to Lynronne-2. The protocol:
Membrane permeabilsation was evaluated using propidium iodide assay as previously explained,[43] with CTAB as positive control. Peptide–lipid interaction was measured using reconstituted lipid monolayer.[44] Total lipid extract from overnight liquid cultures of MRSA USA300 was obtained by Folch extraction, resuspended in chloroform and stored at −20 °C under nitrogen conditions. Pure bacterial and eukaryotic lipids, POPG, cardiolipin, LTA, POPE and POPC (Avanti Polar Lipid USA) were reconstituted in chloroform at 1 mg/ml and stored at −20 °C under nitrogen. […] The variation of the surface pressure caused by peptide injection was then continuously monitored using a fully automated microtensiometer (µTROUGH SX, Kibron Inc., Helsinki, Finland) until reaching equilibrium (maximal surface pressure increase usually obtained after 15–25 min). Critical pressure of insertion of each peptide in the different lipids was also determined by changing the initial pressure of lipid monolayer (from 10 and 30 mN/m) and measuring the variation of pressure caused by the injection of peptide (at 1 µg/ml final concentration). All experiments were carried out in a controlled atmosphere at 20 °C ± 1 °C and data were analyzed using the Filmware 2.5 program (Kibron Inc., Helsinki, Finland). […]

Read-outs that look alike come from different tables or passages of the source. Ends that are not written are not given here.

As for HLRRINKLLTRIGLYRHAFG-NH2 [Lynronne-2], the MIC in the series with Ent. faecalis JH2-2 was 32 µg/mL; in [1] it was 32 µg/mL; in the series on S. aureus it was 32 µg/mL; with Sal. typhimurium SL1344 it was 32 µg/mL; with C. coli, more than 128 µg/mL; against E. coli K12, 64 µg/mL. For the same substance, in the series on MRSA ATCC 33591, the Biofilm attachment result was “effective”. Also, the Cytotoxic activity entry in the series with HUVEC and HepG2 cells was “no cytotoxic activity”. Moreover, the “Interaction with pure lipids” value in series [2] was “preferentially interact with lipids specific to bacteria”. In [2] (initial pressure varied 10 to 30 mN/m), the “Affinity for lipids by critical pressure of insertion” value is “highest affinity for LTA”. Besides, in the series with MRSA USA300 cells, the “Changes in cell morphology (TEM)” value is “very little morphology changes”. Besides, the “Antimicrobial effect compared to the vehicle/control group (0.9% NaCl)” value in series [3] is “not associated with any significant antimicrobial effects”.

In the case of LPRRNRWSKIWKKVVTVFS-NH2 [Lynronne-1], the MIC in the series on A. baumanii is 4 µg/mL; with Ent. faecalis JH2-2, 32 µg/mL; with K. pneumoniae (strain ATCC 700603, SHV-18), 16 µg/mL; against K. pneumoniae (strain NCTC 13442, OXA-48) it was 16 µg/mL; in [1], 32 µg/mL; in the series on S. aureus, 32 µg/mL. For the same substance, the MIC against Sal. typhimurium SL1344 stood at 32 µg/mL; in the series on C. coli, 64 µg/mL; with E. coli K12, 32 µg/mL. Further, the “MIC range for methicillin-resistant S. aureus (MRSA) strains” value in the series on S. aureus is 8 to 32 µg/mL. Besides, in the series with HUVEC and HepG2 cells, the “total growth inhibition (TGI)” value is 67.1 µg/mL. The “Insertion ability into MRSA lipid extract monolayer” value in [4] was “higher insertion ability”. Besides, in series [2], the “Interaction with pure lipids” value was “preferentially interact with lipids specific to bacteria”. Besides, the “Antimicrobial effect compared to the vehicle/control group (0.9% NaCl)” value in series [3] was “not associated with any significant antimicrobial effects”.

Regarding NRFTARFRRTPWRLCLQFRQ-NH2 [Lynronne-3], the MIC was determined as 32 µg/mL in the series on A. baumanii (strain 1560739339, OXA-23, cation adjusted MHB, 18–24 h); 64 µg/mL in the series with Ent. faecalis JH2-2; 32 µg/mL against K. pneumoniae (strain ATCC 700603, SHV-18); 32 µg/mL with K. pneumoniae (strain NCTC 13442, OXA-48); 32 µg/mL in the series on K. pneumoniae (strain Q14-0095, KPC); 32 µg/mL in series [1]. Also, the MIC amounted to 32 µg/mL against S. aureus, 64 µg/mL in the series on Sal. typhimurium SL1344, 128 µg/mL against C. coli and 64 µg/mL against E. coli K12. Also, the “MIC range for methicillin-resistant S. aureus (MRSA) strains” value in the series on S. aureus fell in the range of 32 to 128 µg/mL. Further, the “total growth inhibition (TGI)” value with HUVEC and HepG2 cells was 61.2 µg/mL. The “Insertion ability into MRSA lipid extract monolayer” value in series [4] is “higher insertion ability”. Moreover, the “Interaction with pure lipids” value in series [2] is recorded as “preferentially interact with lipids specific to bacteria”. For the same substance, in series [3], the “Antimicrobial effect compared to the vehicle/control group (0.9% NaCl)” value is “not associated with any significant antimicrobial effects”.
